Test results: the supplement of paper PMC10307832

Experiments:
Assay in all cases: relative viability (nuclei count vs DMSO), 5 days (fraction); higher = more cells survive
[1] = test system: NCI-H1734
Method in brief: (§1)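 Lung cancer cell lines in 1536-well plates got either a single drug or a fixed anchor-drug dose together with five library-drug doses (not always all listed) in √10 steps, by pin tool, on the day after seeding. Nuclei were counted after 5 days, and relative viability is the treated-to-vehicle ratio of nuclei counts. Values are medians of duplicate plates.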

[2] = test system: EKVX
Method in brief: as §1

[3] = test system: NCI-H2228
Method in brief: as §1

[4] = test system: PC-14
Method in brief: as §1

[5] = test system: NCI-H1355
Method in brief: as §1

[6] = test system: COR-L 105
Method in brief: as §1

[7] = test system: NCI-H2009
Method in brief: as §1

[8] = test system: HCC-15
Method in brief: as §1

[9] = test system: HOP-62
Method in brief: as §1

[10] = test system: COR-L23
Method in brief: as §1

[11] = test system: NCI-H1755
Method in brief: as §1

[12] = test system: NCI-H1993
Method in brief: as §1

[13] = test system: UMC-11
Method in brief: as §1

[14] = test system: NCI-H838
Method in brief: as §1

[15] = test system: NCI-H647
Method in brief: as §1

[16] = test system: NCI-H2347
Method in brief: as §1

[17] = test system: HARA
Method in brief: as §1

**Q.** With `CC1(C)CCC(c2ccc(Cl)cc2)=C(CN2CCN(c3ccc(C(=O)NS(=O)(=O)c4ccc(N[C@H](CCN5CCOCC5)CSc5ccccc5)c(S(=O)(=O)C(F)(F)F)c4)cc3)CC2)C1` [Navitoclax] + CC(C)C[C@H](NC(=O)[C@H](Cc1ccccc1)NC(=O)c1cnccn1)B(O)O [Bortezomib] (partner 0.002 µM) as the compound, how does the relative viability ([1]; first compound 0.005 µM) read?
**A.** 1.05

**Q.** And the relative viability ([1]; first compound 0.01581 µM)?
**A.** 1.12

**Q.** What about the relative viability ([1]; first compound 0.1581 µM) of the same compound?
**A.** 0.899

**Q.** And the relative viability ([1]; first compound 0.5 µM)?
**A.** 1.02

**Q.** And the relative viability ([2]; first compound 0.005 µM)?
**A.** 1.01

**Q.** And the relative viability ([2]; first compound 0.01581 µM)?
**A.** 1.01

**Q.** And the relative viability ([2]; first compound 0.05 µM)?
**A.** 0.68

**Q.** What about the relative viability ([2]; first compound 0.1581 µM) of the same compound?
**A.** 1.04

**Q.** And the relative viability ([2]; first compound 0.5 µM)?
**A.** 0.963

**Q.** And the relative viability ([3]; first compound 0.005 µM)?
**A.** 0.849

**Q.** And the relative viability ([3]; first compound 0.01581 µM)?
**A.** 1.33

**Q.** What about the relative viability ([3]; first compound 0.05 µM) of the same compound?
**A.** 0.726

**Q.** What about the relative viability ([3]; first compound 0.1581 µM) of the same compound?
**A.** 0.804

**Q.** What about the relative viability ([3]; first compound 0.5 µM) of the same compound?
**A.** 0.992

**Q.** And the relative viability ([4]; first compound 0.005 µM)?
**A.** 0.876

**Q.** And the relative viability ([4]; first compound 0.01581 µM)?
**A.** 1

**Q.** And the relative viability ([4]; first compound 0.05 µM)?
**A.** 0.934

**Q.** What about the relative viability ([4]; first compound 0.1581 µM) of the same compound?
**A.** 0.865

**Q.** And the relative viability ([4]; first compound 0.5 µM)?
**A.** 0.86

**Q.** And the relative viability ([5]; first compound 0.005 µM)?
**A.** 1.02

**Q.** What about the relative viability ([5]; first compound 0.01581 µM) of the same compound?
**A.** 1.24

**Q.** What about the relative viability ([5]; first compound 0.05 µM) of the same compound?
**A.** 1.06

**Q.** What about the relative viability ([5]; first compound 0.1581 µM) of the same compound?
**A.** 1.15

**Q.** And the relative viability ([5]; first compound 0.5 µM)?
**A.** 1.14

**Q.** And the relative viability ([6]; first compound 0.005 µM)?
**A.** 0.977

**Q.** What about the relative viability ([6]; first compound 0.01581 µM) of the same compound?
**A.** 1.31

**Q.** What about the relative viability ([6]; first compound 0.05 µM) of the same compound?
**A.** 0.712

**Q.** What about the relative viability ([6]; first compound 0.1581 µM) of the same compound?
**A.** 0.875

**Q.** What about the relative viability ([6]; first compound 0.5 µM) of the same compound?
**A.** 0.584

**Q.** What about the relative viability ([7]; first compound 0.005 µM) of the same compound?
**A.** 0.958

**Q.** And the relative viability ([7]; first compound 0.01581 µM)?
**A.** 1.19

**Q.** What about the relative viability ([7]; first compound 0.05 µM) of the same compound?
**A.** 0.953

**Q.** And the relative viability ([7]; first compound 0.1581 µM)?
**A.** 0.979

**Q.** What about the relative viability ([7]; first compound 0.5 µM) of the same compound?
**A.** 1.02

**Q.** What about the relative viability ([8]; first compound 0.005 µM) of the same compound?
**A.** 0.941

**Q.** What about the relative viability ([8]; first compound 0.01581 µM) of the same compound?
**A.** 0.995

**Q.** What about the relative viability ([8]; first compound 0.05 µM) of the same compound?
**A.** 0.85

**Q.** What about the relative viability ([8]; first compound 0.1581 µM) of the same compound?
**A.** 1.06

**Q.** What about the relative viability ([8]; first compound 0.5 µM) of the same compound?
**A.** 1

**Q.** And the relative viability ([9]; first compound 0.005 µM)?
**A.** 0.575

**Q.** And the relative viability ([9]; first compound 0.01581 µM)?
**A.** 0.818

**Q.** What about the relative viability ([9]; first compound 0.05 µM) of the same compound?
**A.** 0.82

**Q.** What about the relative viability ([9]; first compound 0.1581 µM) of the same compound?
**A.** 0.85

**Q.** What about the relative viability ([9]; first compound 0.5 µM) of the same compound?
**A.** 1.1

**Q.** And the relative viability ([10]; first compound 0.005 µM)?
**A.** 0.964

**Q.** What about the relative viability ([10]; first compound 0.01581 µM) of the same compound?
**A.** 1.03

**Q.** And the relative viability ([10]; first compound 0.05 µM)?
**A.** 1.15

**Q.** What about the relative viability ([10]; first compound 0.1581 µM) of the same compound?
**A.** 0.929

**Q.** What about the relative viability ([10]; first compound 0.5 µM) of the same compound?
**A.** 0.975

**Q.** What about the relative viability ([11]; first compound 0.005 µM) of the same compound?
**A.** 0.929

**Q.** What about the relative viability ([11]; first compound 0.01581 µM) of the same compound?
**A.** 1.01

**Q.** And the relative viability ([11]; first compound 0.05 µM)?
**A.** 0.723

**Q.** What about the relative viability ([11]; first compound 0.1581 µM) of the same compound?
**A.** 0.903

**Q.** And the relative viability ([11]; first compound 0.5 µM)?
**A.** 0.924

**Q.** What about the relative viability ([12]; first compound 0.005 µM) of the same compound?
**A.** 1.11

**Q.** What about the relative viability ([12]; first compound 0.01581 µM) of the same compound?
**A.** 1.58

**Q.** What about the relative viability ([12]; first compound 0.05 µM) of the same compound?
**A.** 0.961

**Q.** And the relative viability ([12]; first compound 0.1581 µM)?
**A.** 0.958

**Q.** And the relative viability ([12]; first compound 0.5 µM)?
**A.** 1.06

**Q.** And the relative viability ([13]; first compound 0.005 µM)?
**A.** 0.629

**Q.** What about the relative viability ([13]; first compound 0.01581 µM) of the same compound?
**A.** 0.8

**Q.** What about the relative viability ([13]; first compound 0.1581 µM) of the same compound?
**A.** 0.661

**Q.** And the relative viability ([13]; first compound 0.5 µM)?
**A.** 0.311

**Q.** And the relative viability ([14]; first compound 0.005 µM)?
**A.** 0.65

**Q.** What about the relative viability ([14]; first compound 0.01581 µM) of the same compound?
**A.** 1.19

**Q.** What about the relative viability ([14]; first compound 0.05 µM) of the same compound?
**A.** 1.17

**Q.** And the relative viability ([14]; first compound 0.1581 µM)?
**A.** 0.75

**Q.** And the relative viability ([14]; first compound 0.5 µM)?
**A.** 0.81

**Q.** And the relative viability ([15]; first compound 0.005 µM)?
**A.** 0.686

**Q.** What about the relative viability ([15]; first compound 0.01581 µM) of the same compound?
**A.** 1.22

**Q.** And the relative viability ([15]; first compound 0.05 µM)?
**A.** 0.866

**Q.** And the relative viability ([15]; first compound 0.1581 µM)?
**A.** 0.761

**Q.** What about the relative viability ([15]; first compound 0.5 µM) of the same compound?
**A.** 0.863

**Q.** And the relative viability ([16]; first compound 0.005 µM)?
**A.** 1.71

**Q.** And the relative viability ([16]; first compound 0.05 µM)?
**A.** 0.812

**Q.** And the relative viability ([16]; first compound 0.1581 µM)?
**A.** 1.03

**Q.** What about the relative viability ([16]; first compound 0.5 µM) of the same compound?
**A.** 1.09

**Q.** And the relative viability ([17]; first compound 0.005 µM)?
**A.** 1.04

**Q.** And the relative viability ([17]; first compound 0.01581 µM)?
**A.** 1.11

**Q.** And the relative viability ([17]; first compound 0.05 µM)?
**A.** 0.643

**Q.** What about the relative viability ([17]; first compound 0.1581 µM) of the same compound?
**A.** 1.08

**Q.** And the relative viability ([17]; first compound 0.5 µM)?
**A.** 1.18
